The numbers were not newly measured in patent US8771712B2, “Topical administration of acyclovir” (Emisphere Technologies, Inc., priority 2006, dated 2014), which cites them from elsewhere.

For the data set the following is noted: humans, microdialysis.

As to `Nc1nc2c(ncn2COCCO)c(=O)[nH]1` [acyclovir, 9-(2-hydroxyethoxymethyl) guanine], the “Acyclovir concentration (dermis)” value (after removal of the stratum corneum and infusion of 0.0005% noradrenaline) is 3.9 µg/mL. Besides, the “Acyclovir in the dermis” value (application to intact skin) is on record as “no acyclovir was detected”.
